Read-outs that look alike come from different tables or passages of the source.
Key:
Format in all cases: cell-based
L929 cells = assay: cytotoxicity to L929 cells, MTT assay (viability and replication); set-up: Toxicity, Mean: unit not given here; details: L929 cells; for Toxicity, Mean: MTT; for inhibition at 0.1 µM / inhibition at 1 µM / inhibition at 10 µM / inhibition at 50 µM: Mus musculus, read-out: Toxicity, % of control (inhibition)
Description: Toxoplasma gondii is the causative agent of cerebral toxoplasmic encephalitis, an AIDS-related opportunistic infection. The biological activity of the endoperoxide JHU 2886 of the present invention was measured against Toxoplasma gondii cultured in L929 cells.
More specifically, the cytotoxicity of synthetic organic endoperoxide JHU 2886 was tested in L929 cells by measuring the viability and replication of exposed cells. The cytotoxicity of the compound to the cultured cells was measured using the MTT assay (Promega kit), according to the procedure of Carmichael et al. (18). MTT is an abbreviation for [3-(4,5-dimethylthiazol-2-yl)-2,5-dephenyltetrazolium bromide].
This compound is referred to as JHU 2886 in Table 1. In this experiment atovaquone and artemisinin were used as positive controls. Atovaquone is a broad-spectrum anti-infective drug having antimalarial and antitoxoplasmosis activity (19).
^1 The cytotoxicity of each compound for the cultured cells was
measured using the MTT assay (Promega kit) and inhibition of the […]

Toxoplasma gondii = assay: inhibition of intracellular replication of T. gondii in infected L929 cells, uracil incorporation assay; set-up: Activity, Mean: unit not given here; details: for Activity, Mean: uracil incorporation; for inhibition at 0.1 µM / inhibition at 1 µM / inhibition at 10 µM / inhibition at 50 µM: Toxoplasma gondii, L929, read-out: Activity, % of control (inhibition)
Description: Toxoplasma gondii is the causative agent of cerebral toxoplasmic encephalitis, an AIDS-related opportunistic infection. The biological activity of the endoperoxide JHU 2886 of the present invention was measured against Toxoplasma gondii cultured in L929 cells. The inhibitory activity of the synthetic organic endoperoxide was tested by measuring the intracellular replication of T. gondii in infected L929 cells. The inhibition of the intracellular replication of T. gondii was determined using the uracil incorporation assay (20). […] This compound is referred to as JHU 2886 in Table 1. In this experiment atovaquone and artemisinin were used as positive controls. Atovaquone is a broad-spectrum anti-infective drug having antimalarial and antitoxoplasmosis activity (19). | measured using the MTT assay (Promega kit) and inhibition of the | intracellular replication of T. gondii was determined using the uracil | incorporation assay.

Plasmodium falciparum = assay: antimalarial activity, tritiated-hypoxanthine incorporation assay in human red blood cells; details: Erythrocyte, read-out: IC50 (inhibition of 50% of the replication of Plasmodium falciparum)
Description: (§1) The protozoan Plasmodium falciparum is a causative agent of malaria, the single most critical infectious disease of mankind. The antimalarial activity of the endoperoxides was determined according to the method of Desjardins et al. (16) as modified by Milhous et al. (17). Briefly, the antimalarial activity of the endoperoxides was tested in a tritiated-hypoxanthine incorporation assay by determining the concentration of the test compound needed to inhibit 50% of the replication of Plasmodium falciparum (IC50) in human red blood cells.
It is particularly noted that JHU 2886 has an excellent therapeutic index (ratio of activity to toxicity). At 1 μM, JHU 2886 has a therapeutic index of 70/0, whereas at the same concentration artimisinin has a therapeutic index of 76/10 (7.6), and atovaquone has a therapeutic index of only 95/17 (5.6). […] The first two compounds are known while the following five are being disclosed for the first time. […] Compounds of this formula wherein Ar is p-FCH2 Ph or p-HOCH2 Ph and X is CH2 are also expected to be particularly useful. […]

P. falciparum NF54 = assay: antimalarial activity, P. falciparum NF54 parasites in vitro; details: Plasmodium falciparum; P. falciparum NF54 parasites in vitro; read-out: Antimalarial Activity IC50
Description: as §1
Tables 4 and 5 show the structures and antimalarial activities of unsaturated and saturated bicyclic [2.2.2] endoperoxides of the invention. Compounds of this formula wherein R and R' are identical are particularly preferred. It is expected that compounds wherein R and R' are selected from the groups [drawing 33] will be especially useful. […]

- IC50 (Plasmodium falciparum): 11 nM
- IC50 (P. falciparum NF54): 11 nM
SMILES: C[C@@H]1CC[C@H]2[C@@H](C)C(=O)O[C@@H]3O[C@@]4(C)CC[C@@H]1[C@]32OO4 [Artemisinin]
- Toxicity, Score (L929 cells; 24 hours, dose 0.1 μM): 1 (≤20%)
- Toxicity, Mean (L929 cells; 24 hours, dose 0.1 μM): 0.103
- Toxicity, Score (L929 cells; 24 hours, dose 1.0 μM): 1 (≤20%)
- Toxicity, Mean (L929 cells; 24 hours, dose 1.0 μM): 0.101
- Toxicity, Score (L929 cells; 24 hours, dose 10.0 μM): 1 (≤20%)
- Toxicity, Mean (L929 cells; 24 hours, dose 10.0 μM): 0.104
- Toxicity, Score (L929 cells; 24 hours, dose 50.0 μM): 1 (≤20%)
- Toxicity, Mean (L929 cells; 24 hours, dose 50.0 μM): 0.110
- Toxicity, Mean (L929 cells; 48 hours, dose 0.1 μM): 0.213
- Toxicity, Score (L929 cells; 48 hours, dose 1.0 μM): 1 (≤20%)
- Toxicity, Mean (L929 cells; 48 hours, dose 1.0 μM): 0.205
- Toxicity, Score (L929 cells; 48 hours, dose 10.0 μM): 1 (≤20%)
- Toxicity, Mean (L929 cells; 48 hours, dose 10.0 μM): 0.195
- Toxicity, Score (L929 cells; 48 hours, dose 50.0 μM): 1 (≤20%)
- Toxicity, Mean (L929 cells; 48 hours, dose 50.0 μM): 0.193
- Toxicity, Mean (L929 cells; 72 hours, dose 0.1 μM): 0.460
- Toxicity, Score (L929 cells; 72 hours, dose 1.0 μM): 1 (≤20%)
- Toxicity, Mean (L929 cells; 72 hours, dose 1.0 μM): 0.394
- Toxicity, Score (L929 cells; 72 hours, dose 10.0 μM): 1 (≤20%)
- Toxicity, Mean (L929 cells; 72 hours, dose 10.0 μM): 0.354
- Toxicity, Score (L929 cells; 72 hours, dose 50.0 μM): 2 (>20%-≤40%)
- Toxicity, Mean (L929 cells; 72 hours, dose 50.0 μM): 0.348
- inhibition at 0.1 µM (L929 cells; 24 hours, dose 0.1 μM): 8.56%
- inhibition at 1 µM (L929 cells; 24 hours, dose 1.0 μM): 10.3%
- inhibition at 10 µM (L929 cells; 24 hours, dose 10.0 μM): 7.67%
- inhibition at 50 µM (L929 cells; 24 hours, dose 50.0 μM): 2.36%
- inhibition at 0.1 µM (L929 cells; 48 hours, dose 0.1 μM): 0%
- inhibition at 1 µM (L929 cells; 48 hours, dose 1.0 μM): 3.75%
- inhibition at 10 µM (L929 cells; 48 hours, dose 10.0 μM): 8.44%
- inhibition at 50 µM (L929 cells; 48 hours, dose 50.0 μM): 9.53%
- inhibition at 0.1 µM (L929 cells; 72 hours, dose 0.1 μM): 0%
- inhibition at 1 µM (L929 cells; 72 hours, dose 1.0 μM): 9.97%
- inhibition at 10 µM (L929 cells; 72 hours, dose 10.0 μM): 19.2%
- inhibition at 50 µM (L929 cells; 72 hours, dose 50.0 μM): 20.6%
- therapeutic index (ratio of activity to toxicity), quotient (Toxoplasma gondii; 1 μM, T. gondii activity / L929 toxicity): 7.6
- Activity, Score (Toxoplasma gondii; 24 hours, dose 0.1 μM): 2 (>20%-≤40%)
- Activity, Mean (Toxoplasma gondii; 24 hours, dose 0.1 μM): 10106
- Activity, Score (Toxoplasma gondii; 24 hours, dose 1.0 μM): 4 (>70%-≤90%)
- Activity, Mean (Toxoplasma gondii; 24 hours, dose 1.0 μM): 3467
- Activity, Score (Toxoplasma gondii; 24 hours, dose 10.0 μM): 4 (>70%-≤90%)
- Activity, Mean (Toxoplasma gondii; 24 hours, dose 10.0 μM): 3470
- Activity, Score (Toxoplasma gondii; 24 hours, dose 50.0 μM): 4 (>70%-≤90%)
- Activity, Mean (Toxoplasma gondii; 24 hours, dose 50.0 μM): 33322
- Activity, Score (Toxoplasma gondii; 48 hours, dose 0.1 μM): 1 (≤20%)
- Activity, Mean (Toxoplasma gondii; 48 hours, dose 0.1 μM): 15440
- Activity, Score (Toxoplasma gondii; 48 hours, dose 1.0 μM): 3 (>40%-≤70%)
- Activity, Mean (Toxoplasma gondii; 48 hours, dose 1.0 μM): 6101
- Activity, Score (Toxoplasma gondii; 48 hours, dose 10.0 μM): 4 (>70%-≤90%)
- Activity, Mean (Toxoplasma gondii; 48 hours, dose 10.0 μM): 4225
- Activity, Score (Toxoplasma gondii; 48 hours, dose 50.0 μM): 4 (>70%-≤90%)
- Activity, Mean (Toxoplasma gondii; 48 hours, dose 50.0 μM): 4167
- Activity, Score (Toxoplasma gondii; 72 hours, dose 0.1 μM): 0
- Activity, Mean (Toxoplasma gondii; 72 hours, dose 0.1 μM): 8253
- Activity, Score (Toxoplasma gondii; 72 hours, dose 1.0 μM): 4 (>70%-≤90%)
- Activity, Mean (Toxoplasma gondii; 72 hours, dose 1.0 μM): 1976
- Activity, Score (Toxoplasma gondii; 72 hours, dose 10.0 μM): 4 (>70%-≤90%)
- Activity, Mean (Toxoplasma gondii; 72 hours, dose 10.0 μM): 783
- Activity, Score (Toxoplasma gondii; 72 hours, dose 50.0 μM): 4 (>70%-≤90%)
- Activity, Mean (Toxoplasma gondii; 72 hours, dose 50.0 μM): 813
- inhibition at 0.1 µM (Toxoplasma gondii; 24 hours, dose 0.1 μM): 29.6%
- inhibition at 1 µM (Toxoplasma gondii; 24 hours, dose 1.0 μM): 75.8%
- inhibition at 10 µM (Toxoplasma gondii; 24 hours, dose 10.0 μM): 75.8%
- inhibition at 50 µM (Toxoplasma gondii; 24 hours, dose 50.0 μM): 76.8%
- inhibition at 0.1 µM (Toxoplasma gondii; 48 hours, dose 0.1 μM): 10.4%
- inhibition at 1 µM (Toxoplasma gondii; 48 hours, dose 1.0 μM): 64.6%
- inhibition at 10 µM (Toxoplasma gondii; 48 hours, dose 10.0 μM): 75.5%
- inhibition at 50 µM (Toxoplasma gondii; 48 hours, dose 50.0 μM): 75.8%
- inhibition at 0.1 µM (Toxoplasma gondii; 72 hours, dose 0.1 μM): -14.1%
- inhibition at 1 µM (Toxoplasma gondii; 72 hours, dose 1.0 μM): 72.7%
- inhibition at 10 µM (Toxoplasma gondii; 72 hours, dose 10.0 μM): 89.2%
- inhibition at 50 µM (Toxoplasma gondii; 72 hours, dose 50.0 μM): 88.8%

Source: patent US5817692A, “Endoperoxides useful as antiparasitic agents” (priority 1996, dated 1998)
